Measurements: ChEMBL document CHEMBL5550160, “Leveraging a rationally designed veliparib-based anilide eliciting anti-leukemic effects for the design of pH-responsive polymer nanoformulation” (Eur J Med Chem, 2024)
Calls of active or inactive are those of the source. No cut-off for these calls is given here.

Columns and labels:
[1] = target: T1, Polyamine deacetylase HDAC10 (Homo sapiens) (UniProt Q969S8); experiment: Inhibition of HDAC10 (unknown origin) assessed as residual activity at 4.12 x 10^-8M (reference value: 101.54%); conditions: dose 4.12 10^-8M
T1 sequence (whole entry): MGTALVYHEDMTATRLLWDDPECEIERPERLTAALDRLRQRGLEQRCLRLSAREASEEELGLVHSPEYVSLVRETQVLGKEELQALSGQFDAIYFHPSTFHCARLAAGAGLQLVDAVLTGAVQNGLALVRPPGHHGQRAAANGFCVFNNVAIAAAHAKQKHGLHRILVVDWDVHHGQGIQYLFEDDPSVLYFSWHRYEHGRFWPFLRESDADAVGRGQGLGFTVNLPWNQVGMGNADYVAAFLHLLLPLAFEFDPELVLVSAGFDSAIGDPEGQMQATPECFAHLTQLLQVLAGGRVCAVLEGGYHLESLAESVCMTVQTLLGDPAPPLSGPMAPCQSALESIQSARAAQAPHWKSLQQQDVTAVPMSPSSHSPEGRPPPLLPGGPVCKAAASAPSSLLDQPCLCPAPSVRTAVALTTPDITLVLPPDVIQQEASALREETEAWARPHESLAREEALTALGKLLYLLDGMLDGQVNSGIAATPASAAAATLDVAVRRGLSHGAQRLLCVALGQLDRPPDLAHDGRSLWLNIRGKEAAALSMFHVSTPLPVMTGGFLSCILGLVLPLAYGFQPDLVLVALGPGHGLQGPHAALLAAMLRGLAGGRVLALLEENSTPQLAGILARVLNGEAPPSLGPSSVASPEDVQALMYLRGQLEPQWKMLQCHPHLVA

[2] = target: T2, Protein deacetylase HDAC6 (Homo sapiens) (UniProt Q9UBN7); experiment: Inhibition of HDAC6 (unknown origin) using p53 residues 379 to 382 [RHKK(Ac)] as fluorogenic substrate assessed as residual activity at 1.52 x 10^-9M (reference value: 101.06%); conditions: dose 1.52 10^-9M
T2 sequence (whole entry): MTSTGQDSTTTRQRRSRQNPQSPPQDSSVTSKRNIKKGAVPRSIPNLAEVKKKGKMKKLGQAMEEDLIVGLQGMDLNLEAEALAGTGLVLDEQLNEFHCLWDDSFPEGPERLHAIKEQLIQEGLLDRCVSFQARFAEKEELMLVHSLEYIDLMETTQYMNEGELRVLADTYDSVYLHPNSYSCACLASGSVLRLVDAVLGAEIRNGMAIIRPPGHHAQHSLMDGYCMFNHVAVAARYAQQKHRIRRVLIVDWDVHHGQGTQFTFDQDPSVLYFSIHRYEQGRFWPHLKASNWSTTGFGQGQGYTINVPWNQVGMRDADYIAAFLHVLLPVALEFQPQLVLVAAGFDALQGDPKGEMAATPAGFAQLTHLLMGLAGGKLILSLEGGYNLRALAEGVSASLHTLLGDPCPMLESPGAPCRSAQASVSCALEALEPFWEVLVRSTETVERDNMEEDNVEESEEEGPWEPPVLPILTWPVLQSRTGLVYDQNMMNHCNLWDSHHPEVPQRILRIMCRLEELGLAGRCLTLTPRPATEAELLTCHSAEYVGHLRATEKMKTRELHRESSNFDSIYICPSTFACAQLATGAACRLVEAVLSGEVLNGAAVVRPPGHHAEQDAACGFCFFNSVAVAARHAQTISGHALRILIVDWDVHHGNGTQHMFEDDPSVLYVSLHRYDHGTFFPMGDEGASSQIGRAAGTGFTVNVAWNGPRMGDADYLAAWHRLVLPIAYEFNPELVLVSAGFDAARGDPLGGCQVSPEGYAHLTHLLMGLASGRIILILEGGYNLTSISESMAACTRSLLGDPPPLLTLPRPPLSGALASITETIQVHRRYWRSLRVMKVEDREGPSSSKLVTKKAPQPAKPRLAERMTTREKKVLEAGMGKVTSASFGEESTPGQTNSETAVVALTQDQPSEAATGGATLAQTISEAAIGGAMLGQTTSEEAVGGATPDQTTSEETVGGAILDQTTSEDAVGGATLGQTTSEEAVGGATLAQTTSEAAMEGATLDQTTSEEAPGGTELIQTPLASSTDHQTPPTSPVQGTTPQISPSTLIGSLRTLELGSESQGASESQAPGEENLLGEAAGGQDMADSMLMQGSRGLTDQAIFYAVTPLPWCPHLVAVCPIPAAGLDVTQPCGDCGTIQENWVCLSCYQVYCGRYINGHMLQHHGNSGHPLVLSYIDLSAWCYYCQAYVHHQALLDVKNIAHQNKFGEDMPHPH

Histone deacetylase 2 = Histone deacetylase 2 (Homo sapiens, UniProt Q92769); experiment: Inhibition of HDAC2 (unknown origin) assessed as residual activity at 1 x 10^-5M (reference value: 99.81%); conditions: dose 1.0 10^-5M
Histone deacetylase 2, sequence (Q92769 whole entry, the tested form may be a part): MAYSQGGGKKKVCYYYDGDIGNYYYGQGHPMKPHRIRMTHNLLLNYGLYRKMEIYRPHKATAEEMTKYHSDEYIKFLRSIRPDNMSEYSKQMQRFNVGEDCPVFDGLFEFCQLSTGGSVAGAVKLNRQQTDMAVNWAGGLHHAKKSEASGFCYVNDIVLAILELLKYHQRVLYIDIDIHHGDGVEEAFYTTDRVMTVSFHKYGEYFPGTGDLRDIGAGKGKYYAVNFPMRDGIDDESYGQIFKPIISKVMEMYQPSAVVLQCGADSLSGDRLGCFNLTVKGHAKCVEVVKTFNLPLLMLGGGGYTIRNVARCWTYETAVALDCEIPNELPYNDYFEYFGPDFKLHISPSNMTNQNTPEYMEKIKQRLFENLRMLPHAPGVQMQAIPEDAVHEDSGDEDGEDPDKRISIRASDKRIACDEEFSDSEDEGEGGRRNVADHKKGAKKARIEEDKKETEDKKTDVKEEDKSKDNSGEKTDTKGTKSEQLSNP

Histone deacetylase 1 [3] = target: T3, Histone deacetylase 1 (Homo sapiens, UniProt Q13547); experiment: Inhibition of HDAC1 (unknown origin) using p53 residues 379 to 382 [RHKK(Ac)] as fluorogenic substrate assessed as residual activity at 1.11 x 10^-6M (reference value: 98.06%); conditions: dose 1.11 10^-6M
T3 sequence (Q13547 whole entry, the tested form may be a part): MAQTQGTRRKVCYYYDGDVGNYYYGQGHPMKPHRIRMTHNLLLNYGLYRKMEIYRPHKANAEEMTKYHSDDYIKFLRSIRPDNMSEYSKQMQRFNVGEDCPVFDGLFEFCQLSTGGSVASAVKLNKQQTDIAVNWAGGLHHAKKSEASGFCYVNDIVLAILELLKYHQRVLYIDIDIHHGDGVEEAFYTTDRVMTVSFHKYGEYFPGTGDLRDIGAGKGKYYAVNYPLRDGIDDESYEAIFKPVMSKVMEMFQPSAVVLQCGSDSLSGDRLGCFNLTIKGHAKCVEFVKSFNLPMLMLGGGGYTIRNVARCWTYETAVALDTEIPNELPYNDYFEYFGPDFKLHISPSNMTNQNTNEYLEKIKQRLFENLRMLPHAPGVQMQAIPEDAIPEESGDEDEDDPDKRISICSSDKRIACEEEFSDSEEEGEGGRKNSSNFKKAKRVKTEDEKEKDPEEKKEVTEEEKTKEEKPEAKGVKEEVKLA

HL-60 [4] = experiment: Induction of cell cycle arrest in human HL-60 cells assessed as accumulation of cells at sub-G1 phase at 0.5 to 1 times IC50 by PI staining based flow cytometry analysis; assay type: functional
Histone deacetylase 1 [5] = target: T3, Histone deacetylase 1; experiment: Inhibition of HDAC1 (unknown origin) using p53 residues 379 to 382 [RHKK(Ac)] as fluorogenic substrate assessed as residual activity at 5.08 x 10^-10M (reference value: 98.06%); conditions: dose 5.08 10^-10M
HL-60 [6] = experiment: Induction of cell cycle arrest in G0/G1 phase in human HL-60 cells assessed as downregulation of AKT protein expression at 0.5 to 1 times IC50 by Western blot analysis; assay type: functional, cell-based
[7] = target: T4, Histone deacetylase 8 (Homo sapiens) (UniProt Q9BY41); experiment: Inhibition of HDAC8 (unknown origin) assessed as residual activity at 5.08 x 10^-10M (reference value: 100%); conditions: dose 5.08 10^-10M
T4 sequence (whole entry): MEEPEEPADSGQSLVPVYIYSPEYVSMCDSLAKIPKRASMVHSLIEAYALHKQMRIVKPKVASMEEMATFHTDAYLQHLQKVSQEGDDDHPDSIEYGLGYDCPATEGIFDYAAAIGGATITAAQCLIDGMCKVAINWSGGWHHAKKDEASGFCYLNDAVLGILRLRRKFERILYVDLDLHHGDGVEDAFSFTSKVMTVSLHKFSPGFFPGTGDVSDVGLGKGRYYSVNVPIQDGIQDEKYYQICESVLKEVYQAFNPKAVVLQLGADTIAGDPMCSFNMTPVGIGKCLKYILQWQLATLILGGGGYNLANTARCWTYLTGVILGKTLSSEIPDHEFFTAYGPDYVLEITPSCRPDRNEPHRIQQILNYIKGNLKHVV

[8] = target: Histone deacetylase 4 (Homo sapiens) (UniProt P56524); experiment: Inhibition of HDAC4 (unknown origin) assessed as residual activity at 1.23 x 10^-7M (reference value: 98.90%); conditions: dose 1.23 10^-7M
Histone deacetylase 4 (Homo sapiens), sequence (P56524 whole entry): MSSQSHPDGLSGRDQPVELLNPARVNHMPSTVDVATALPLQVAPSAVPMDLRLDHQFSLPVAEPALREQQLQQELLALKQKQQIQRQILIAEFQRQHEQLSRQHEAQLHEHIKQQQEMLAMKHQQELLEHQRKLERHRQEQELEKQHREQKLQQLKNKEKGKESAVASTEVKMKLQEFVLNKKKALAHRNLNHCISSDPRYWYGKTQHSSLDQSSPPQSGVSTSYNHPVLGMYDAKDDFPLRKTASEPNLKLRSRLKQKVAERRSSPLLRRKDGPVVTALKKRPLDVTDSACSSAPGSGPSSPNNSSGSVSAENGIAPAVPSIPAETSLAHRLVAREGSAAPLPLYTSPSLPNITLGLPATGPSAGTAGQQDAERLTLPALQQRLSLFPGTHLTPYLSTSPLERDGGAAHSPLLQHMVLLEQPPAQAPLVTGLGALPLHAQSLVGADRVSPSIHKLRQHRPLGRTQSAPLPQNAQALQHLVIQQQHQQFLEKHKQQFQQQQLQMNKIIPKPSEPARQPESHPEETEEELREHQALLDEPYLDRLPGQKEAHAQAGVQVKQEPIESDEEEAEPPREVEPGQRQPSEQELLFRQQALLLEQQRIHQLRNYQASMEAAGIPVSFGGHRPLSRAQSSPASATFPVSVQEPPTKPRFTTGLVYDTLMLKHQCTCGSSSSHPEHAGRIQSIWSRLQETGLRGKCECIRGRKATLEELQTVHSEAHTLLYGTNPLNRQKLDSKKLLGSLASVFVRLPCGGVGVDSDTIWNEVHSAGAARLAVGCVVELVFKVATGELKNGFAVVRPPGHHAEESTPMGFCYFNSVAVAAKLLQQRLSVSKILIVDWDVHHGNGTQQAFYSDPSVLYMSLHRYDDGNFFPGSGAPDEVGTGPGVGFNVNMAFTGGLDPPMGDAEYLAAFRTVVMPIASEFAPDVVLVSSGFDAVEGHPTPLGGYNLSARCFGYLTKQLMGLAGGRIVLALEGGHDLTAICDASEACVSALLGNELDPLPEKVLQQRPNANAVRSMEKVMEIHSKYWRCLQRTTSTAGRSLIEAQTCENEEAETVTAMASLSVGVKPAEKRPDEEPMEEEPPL

Activity [1]: 102%
Activity [2]: 96.7%
Activity (Histone deacetylase 2): 7.52%
Activity (Histone deacetylase 1 [3]): 11%
Activity (Histone deacetylase 1 [5]): 93.5%
Activity [7]: 105%
Activity [8]: 85%
SMILES: NC(=O)c1cccc2[nH]c(-c3ccc(NCc4ccc(C(=O)Nc5ccccc5N)cc4)cc3)nc12
Activity (HL-60 [4]): inactive
Activity (HL-60 [6]): Active
